ChEMBL document CHEMBL1125024, “Hemoglobin S antigelation agents based on 5-bromotryptophan with potential for sickle cell anemia” (J Med Chem, 1990)
Where a SMILES comes first, the peptide text is derived from it. [ ]: non-standard residue; d: D form. Trp(5-Br) = N[C@@H](Cc1c[nH]c2ccc(Br)cc12)C(=O)O

Species: Homo sapiens
Assay: Inhibitory activity against aggregation of deoxy-HbS using CSAT assay
Format: functional

Structure (SMILES)	Slope
N[C@@H](Cc1c[nH]c2ccc(Br)cc12)C(=O)O	356 g dl-1M-1
N[C@@H](Cc1c[nH]c2ccccc12)C(=O)O	124 g dl-1M-1
N[C@@H](Cc1c[nH]c2ccccc12)C(=O)N[C@@H](Cc1c[nH]c2ccccc12)C(=O)O (H-Trp-Trp-OH)	235 g dl-1M-1
N[C@@H](Cc1c[nH]c2ccccc12)C(=O)N[C@@H](Cc1c[nH]c2ccc(Br)cc12)C(=O)O (H-Trp-[Trp(5-Br)]-OH)	240 g dl-1M-1
N[C@@H](Cc1c[nH]c2ccc(Br)cc12)C(=O)N[C@@H](Cc1c[nH]c2ccccc12)C(=O)O (H-[Trp(5-Br)]-Trp-OH)	334 g dl-1M-1
N[C@@H](Cc1c[nH]c2ccc(Br)cc12)C(=O)N[C@@H](Cc1c[nH]c2ccc(Br)cc12)C(=O)O (H-[Trp(5-Br)]-[Trp(5-Br)]-OH)	726 g dl-1M-1
